Read-outs that look alike come from different tables or passages of the source. Where only a bound is given, the exact number is not on record here.

For 10 compounds, IC50 results are on record in patent publication US20120157439A1, “RAF INHIBITOR COMPOUNDS AND METHODS OF USE THEREOF” (GENENTECH, INC., priority 2009, published 2012).

The target in the assay is T1, V600E full-length B-Raf (Homo sapiens, UniProt P15056, V600E).
T1 construct: 1 μM FSBA-MEK and 20 nM V600E full-length B-Raf; made in house; host or cells: sf9 insect cells (baculovirus)
T1 sequence (P15056 whole entry V600E): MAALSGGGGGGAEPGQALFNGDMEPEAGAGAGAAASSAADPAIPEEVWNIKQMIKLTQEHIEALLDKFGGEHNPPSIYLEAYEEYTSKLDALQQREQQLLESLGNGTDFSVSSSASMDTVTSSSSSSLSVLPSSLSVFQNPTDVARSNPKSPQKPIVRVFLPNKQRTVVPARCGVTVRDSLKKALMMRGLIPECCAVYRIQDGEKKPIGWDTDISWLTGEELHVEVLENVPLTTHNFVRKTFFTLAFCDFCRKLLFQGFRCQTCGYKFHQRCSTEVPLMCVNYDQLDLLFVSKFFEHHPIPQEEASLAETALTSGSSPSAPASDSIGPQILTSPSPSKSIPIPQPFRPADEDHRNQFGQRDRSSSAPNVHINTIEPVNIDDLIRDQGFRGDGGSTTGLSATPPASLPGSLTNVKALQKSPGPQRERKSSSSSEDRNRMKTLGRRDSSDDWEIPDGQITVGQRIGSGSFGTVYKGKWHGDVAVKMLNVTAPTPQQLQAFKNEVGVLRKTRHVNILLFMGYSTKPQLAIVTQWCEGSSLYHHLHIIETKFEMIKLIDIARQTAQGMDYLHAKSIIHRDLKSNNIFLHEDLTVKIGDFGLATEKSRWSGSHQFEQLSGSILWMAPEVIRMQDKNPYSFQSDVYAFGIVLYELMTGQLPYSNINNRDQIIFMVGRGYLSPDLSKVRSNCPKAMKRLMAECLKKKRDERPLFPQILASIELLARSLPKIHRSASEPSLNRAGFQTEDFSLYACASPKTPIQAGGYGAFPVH
In words: B-Raf IC50 Assay (B-RAF V600E inhibition assay, Example A). It counts as biochemical. An excerpt: Determining the activity of Raf in the sample is possible by a number of direct and indirect detection methods (US 2004/0082014). Activity of human recombinant B-Raf protein may be assessed in vitro by assay of the incorporation of radio labeled phosphate to recombinant MAP kinase (MEK), a known physiologic substrate of B-Raf, according to US 2004/0127496 and WO 03/022840. The activity/inhibition of V600E full-length B-Raf was estimated by measuring the incorporation of radio labeled phosphate from [γ-33P]ATP into FSBA-modified wild-type MEK (see Example A).
Activity of human recombinant B-Raf protein may be assessed in vitro by assay of the incorporation of radio labeled phosphate to recombinant MAP kinase (MEK), a known physiologic substrate of B-Raf, according to U.S. Patent Appl. Publication No. 2004/0127496 and WO 03/022840. Catalytically active human recombinant B-Raf protein is obtained by purification from sf9 insect cells infected with a human B-Raf recombinant baculovirus expression vector.
The activity/inhibition of V600E full-length B-Raf was estimated by measuring the incorporation of radio labeled phosphate from [γ-33P]ATP into FSBA-modified wild-type MEK. The […] assay mixtures contained 25 mM Na Pipes, pH 7.2, 100 mM KCl, 10 mM MgCl2, 5 mM β-glycerophosphate, 100 μM Na Vanadate, 4 μM ATP, 500 nCi [γ-33P]ATP, 1 μM FSBA-MEK and 20 nM V600E full-length B-Raf. Incubations were carried out at 22° C. in a Costar 3365 plate (Corning). Prior to the assay, the B-Raf and FSBA-MEK were preincubated together in assay buffer at 1.5× (20 μL of 30 nM and 1.5 μM, respectively) for 15 minutes, and the assay was initiated by the addition of 10 μL of […]. Following the 60-minute incubation, the assay mixtures were quenched by the addition of 100 μL of 25% TCA, the plate was mixed on a rotary shaker for 1 minute, and the product was captured on a Perkin-Elmer GF/B filter plate using a Tomtec Mach III Harvester. After sealing the bottom of the plate, 35 μL of Bio-Safe II (Research Products International) scintillation cocktail were added to each well and the plate was top-sealed and counted in a Topcount NXT (Packard).

Setting [1] is: B-Raf V600E assay of Example A: less than 100 nM, read-out: IC50.
Where [2] appears, read: B-Raf V600E assay of Example A: less than about 1 μM, read-out: IC50.
[3] abbreviates: incorporation of radio labeled phosphate from [γ-33P]ATP into FSBA-modified wild-type MEK, 4 μM ATP, 20 nM V600E full-length B-Raf, 60-minute incubation, 22° C., read-out: BRAF V600E IC50.

The term IC50 denotes the point on the concentration scale where inhibition reaches its midpoint. Consider `CCCS(=O)(=O)Nc1ccc(F)c(NC(=O)c2c[nH]c3c(NC4CC4)ncnc23)c1F` [Example 104, 4-Cyclopropylamino-5H-pyrrolo[3,2-d]pyrimidine-7-carboxylic acid [2,6-difluoro-3-(propane-1-sulfonylamino)-phenyl]-amide], for which the concentration for half-maximal inhibition (IC50) reads like this: under setting [1], less than 100 nM; under setting [2], less than 1000 nM; under setting [3], 47.6 nM.

As for `CCCS(=O)(=O)Nc1ccc(Cl)c(NC(=O)c2csc3c(NC(C)C)ncnc23)c1Cl` [Example 70, 4-Isopropyl-amino-thieno [3,2-d] pyrimidine-7-carboxylic acid [2 6-dichloro-3-(propane-1-sulfonyl-amino)-phenyl]-amide], the 50% inhibitory concentration (IC50) runs as follows: under setting [1], less than 100 nM; under setting [2], less than 1000 nM; under setting [3], 3.4 nM.

As to `CCCS(=O)(=O)Nc1cc(F)c(F)c(NC(=O)c2csc3c(NC(C)C)ncnc23)c1F` [Example 91, 4-Isopropyl-amino-thieno [3,2-d] pyrimidine-7-carboxylic acid [2,3,6-trifluoro-5-(propane-1-sulfonyl-amino)-phenyl]-amide], the half-inhibitory concentration (IC50) is, setting by setting: under setting [1], less than 100 nM; under setting [2], less than 1000 nM; under setting [3], 27.9 nM.

Consider `CCCS(=O)(=O)Nc1ccc(Cl)c(NC(=O)c2csc3c(NOC)ncnc23)c1Cl` [Example 65, 4-Methoxyamino-thieno[3,2-d]pyrimidine-7-carboxylic acid [2,6-dichloro-3-(propane-1-sulfonylamino)-phenyl]amide], for which the IC50 by setting is: under setting [1], less than 100 nM; under setting [2], less than 1000 nM; under setting [3], 1.2 nM.

As to `CCCS(=O)(=O)Nc1cc(F)c(F)c(NC(=O)c2csc3c(NC4CC(F)(F)C4)ncnc23)c1F` [Example 93, 4-(3,3-Difluoro-cyclobutyl-amino)-thieno[3,2-d] pyrimidine-7-carboxylic acid [2,3,6-trifluoro-5-(propane-1-sulfonyl-amino)-phenyl]-amide], the IC50 by setting is: under setting [2], less than 1000 nM; under setting [3], 118 nM.

As to `CCNc1ncnc2c(C(=O)Nc3c(Cl)ccc(NS(=O)(=O)CCCF)c3Cl)csc12` [Example 83, 4-Ethylamino-thieno[3,2-d] pyrimidine-7-carboxylic acid [2,6-dichloro-3-(3-fluoro-propane-1-sulfonyl-amino)-phenyl]-amide], the half-maximal inhibitory concentration (IC50) is, setting by setting: under setting [1], less than 100 nM; under setting [2], less than 1000 nM; under setting [3], 0.32 nM.

On to `CCCS(=O)(=O)Nc1ccc(F)c(NC(=O)c2csc3c(NC4CC4)ncnc23)c1Cl` [Example 43, 4-Cyclopropylamino-thieno[3,2-d]pyrimidine-7-carboxylic acid [2-chloro-6-fluoro-3-(propane-1-sulfonylamino)-phenyl]-amide], for which the 50% inhibitory concentration (IC50) by setting is: under setting [1], less than 100 nM; under setting [2], less than 1000 nM; under setting [3], 1.9 nM.

Take `CCCS(=O)(=O)Nc1ccc(F)c(NC(=O)c2csc3c(NC4CCC4)ncnc23)c1F` [Example 55, 4-Cyclobutyl-amino-thieno [3,2-d] pyrimidine-7-carboxylic acid [2,6-difluoro-3-(propane-1-sulfonylamino)-phenyl]-amide]: the 50% inhibitory concentration (IC50) runs as follows: under setting [1], less than 100 nM; under setting [2], less than 1000 nM; under setting [3], 45.5 nM.

In the case of `CCCS(=O)(=O)Nc1ccc(F)c(NC(=O)c2csc3c(N)ncnc23)c1` [Example 27, 4-Amino-thieno[3,2-d]pyrimidine-7-carboxylic acid[2-fluoro-5-(propane-1-sulfonylamino)-phenyl]-amide], the half-maximal inhibitory concentration (IC50) runs as follows: under setting [2], less than 1000 nM; under setting [3], 125 nM.

In the case of `CCCS(=O)(=O)Nc1ccc(F)c(NC(=O)c2csc3c(NCC(F)F)ncnc23)c1F` [Example 53, 4-(2,2-Difluoro-ethylamino)-thieno[3,2-d] pyrimidine-7-carboxylic acid [2,6-difluoro-3-(propane-1-sulfonylamino)-phenyl]-amide], the half-inhibitory concentration (IC50) reads like this: under setting [1], less than 100 nM; under setting [2], less than 1000 nM; under setting [3], 26.5 nM.
